Measurements from ChEMBL document CHEMBL5370598, “[3H]UR-JG102-A Radiolabeled Cyclic Peptide with High Affinity and Excellent Selectivity for the Neuropeptide Y Y4 Receptor” (J Med Chem, 2023).
One block for each compound: values may come before it.

What was measured:
[1] = Chemical stability in PBS buffer at pH 7.4 after 48 hrs by RP-HPLC analysis; type: physicochemical; settings: pH 7.4, 48 h
[2] = target: T1, Neuropeptide Y receptor type 1 (Homo sapiens, UniProt P25929); assay: Displacement of [3H]UR-MK299 from human Y1R expressed in SK-N-MC cells; type: cell-based
T1 sequence (P25929 whole entry): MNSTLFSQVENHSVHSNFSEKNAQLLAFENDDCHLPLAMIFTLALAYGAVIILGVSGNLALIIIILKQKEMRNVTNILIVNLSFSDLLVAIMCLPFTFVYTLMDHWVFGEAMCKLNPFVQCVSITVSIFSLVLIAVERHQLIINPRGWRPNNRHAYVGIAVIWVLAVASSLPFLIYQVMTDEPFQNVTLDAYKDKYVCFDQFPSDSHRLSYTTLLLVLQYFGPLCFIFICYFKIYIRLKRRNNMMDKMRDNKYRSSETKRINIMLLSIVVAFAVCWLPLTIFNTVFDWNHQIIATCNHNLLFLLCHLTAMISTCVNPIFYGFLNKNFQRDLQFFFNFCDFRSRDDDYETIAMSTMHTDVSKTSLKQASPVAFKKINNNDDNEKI

[3] = target: T2, Neuropeptide Y receptor type 2 (Homo sapiens, UniProt P49146); assay: Displacement of [3H]propionyl-pNPY from human Y2R expressed in CHO cells; type: cell-based
T2 sequence (P49146 whole entry): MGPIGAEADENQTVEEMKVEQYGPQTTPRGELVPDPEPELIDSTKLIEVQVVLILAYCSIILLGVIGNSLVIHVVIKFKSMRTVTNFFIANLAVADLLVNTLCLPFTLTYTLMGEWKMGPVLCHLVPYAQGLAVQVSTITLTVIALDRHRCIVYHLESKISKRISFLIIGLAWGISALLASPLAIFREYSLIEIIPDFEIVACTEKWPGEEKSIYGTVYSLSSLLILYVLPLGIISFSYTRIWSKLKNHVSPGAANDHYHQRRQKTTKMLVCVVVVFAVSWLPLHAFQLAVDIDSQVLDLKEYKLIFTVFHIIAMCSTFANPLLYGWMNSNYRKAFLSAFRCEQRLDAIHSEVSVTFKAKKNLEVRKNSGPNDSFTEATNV

[4] = target: T3, Neuropeptide Y receptor type 4 (Homo sapiens, UniProt P50391); assay: Displacement of [3H]UR-KK200 from human Y4R expressed in CHO cells co-expressing Gqi5-mtAEQ; type: cell-based
T3 sequence (P50391 whole entry): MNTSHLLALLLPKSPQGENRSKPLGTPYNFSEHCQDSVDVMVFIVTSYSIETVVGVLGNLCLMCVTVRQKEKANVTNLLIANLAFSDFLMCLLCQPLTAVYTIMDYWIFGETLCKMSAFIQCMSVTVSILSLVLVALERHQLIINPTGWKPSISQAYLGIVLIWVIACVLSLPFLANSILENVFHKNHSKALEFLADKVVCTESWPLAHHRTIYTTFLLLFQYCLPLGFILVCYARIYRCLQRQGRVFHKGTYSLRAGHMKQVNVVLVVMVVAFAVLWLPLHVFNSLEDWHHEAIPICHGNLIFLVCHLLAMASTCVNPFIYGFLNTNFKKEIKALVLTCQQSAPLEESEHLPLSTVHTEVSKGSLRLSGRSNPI

[5] = target: T4, Neuropeptide Y receptor type 5 (Homo sapiens, UniProt Q15761); assay: Displacement of [3H]propionyl-pNPY from human Y5R expressed in HEC-1B cells; type: cell-based, HEC-1B cell line
T4 sequence (Q15761 whole entry): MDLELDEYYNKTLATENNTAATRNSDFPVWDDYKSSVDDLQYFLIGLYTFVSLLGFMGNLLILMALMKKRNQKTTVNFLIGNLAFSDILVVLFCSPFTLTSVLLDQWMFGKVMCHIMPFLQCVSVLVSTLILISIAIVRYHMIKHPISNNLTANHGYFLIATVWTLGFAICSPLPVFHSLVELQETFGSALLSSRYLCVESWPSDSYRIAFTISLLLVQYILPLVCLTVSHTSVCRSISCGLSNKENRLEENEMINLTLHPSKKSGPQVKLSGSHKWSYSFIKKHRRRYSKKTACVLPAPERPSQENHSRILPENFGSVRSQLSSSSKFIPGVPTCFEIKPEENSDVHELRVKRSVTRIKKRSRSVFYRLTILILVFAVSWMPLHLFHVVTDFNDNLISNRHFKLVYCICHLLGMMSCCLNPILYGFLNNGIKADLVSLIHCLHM

Homo sapiens [6] = organism: Homo sapiens; assay: Selectivity ratio of pKi for human Y1R to pKi for human Y4R
Homo sapiens [7] = organism: Homo sapiens; assay: Selectivity ratio of pKi for human Y2R to pKi for human Y4R
Homo sapiens [8] = organism: Homo sapiens; assay: Selectivity ratio of pKi for human Y5R to pKi for human Y4R
[9] = target: T3, Neuropeptide Y receptor type 4; assay: Agonist activity at human Y4R expressed in CHO cells co-expressing Gqi5-mtAEQ by calcium2+ aequorin assay; type: functional, cell-based
[10] = target: T3, Neuropeptide Y receptor type 4; assay: Agonist activity at human Y4R expressed in HEK293T cells by miniGsi assay; type: functional, cell-based
[11] = target: T3, Neuropeptide Y receptor type 4; assay: Agonist activity at human Y4R expressed in HEK293T cells incubated for 60 mins by cAMP CAMYEN assay; type: functional, cell-based
[12] = target: T3, Neuropeptide Y receptor type 4; assay: Agonist activity at human Y4R expressed in CHO cells co-expressing Gqi5-mtAEQ by calcium2+ aequorin assay relative to control; type: functional, cell-based; settings: filed as agonist
[13] = target: T3, Neuropeptide Y receptor type 4; assay: Agonist activity at human Y4R expressed in HEK293T cells by miniGsi assay relative to control; type: functional, cell-based; settings: filed as agonist
[14] = target: T3, Neuropeptide Y receptor type 4; assay: Agonist activity at human Y4R expressed in HEK293T cells incubated for 60 mins by cAMP CAMYEN assay relative to control; type: functional, cell-based; settings: filed as agonist
[15] = target: T3, Neuropeptide Y receptor type 4; assay: Binding affinity to human Y4R expressed in CHO cells co-expressing Gqi5-mtAEQ assessed as observed association rate constant under sodium free buffer condition; type: cell-based; settings: filed as agonist, tested as the 3H-labelled form
[16] = target: T3, Neuropeptide Y receptor type 4; assay: Binding affinity to human Y4R expressed in CHO cells co-expressing Gqi5-mtAEQ assessed as Koff under sodium free buffer condition; type: cell-based; settings: filed as agonist, tested as the 3H-labelled form
[17] = target: T3, Neuropeptide Y receptor type 4; assay: Binding affinity to human Y4R expressed in CHO cells co-expressing Gqi5-mtAEQ assessed as Kon under sodium free buffer condition; type: cell-based; settings: filed as agonist, tested as the 3H-labelled form
[18] = target: T3, Neuropeptide Y receptor type 4; assay: Binding affinity to human Y4R expressed in CHO cells co-expressing Gqi5-mtAEQ assessed as observed association rate constant preincubated for 20 mins under DPBS condition; type: cell-based; settings: filed as agonist, tested as the 3H-labelled form
[19] = target: T3, Neuropeptide Y receptor type 4; assay: Binding affinity to human Y4R expressed in CHO cells co-expressing Gqi5-mtAEQ assessed as Koff preincubated for 20 mins under DPBS condition; type: cell-based; settings: filed as agonist, tested as the 3H-labelled form
[20] = target: T3, Neuropeptide Y receptor type 4; assay: Binding affinity to human Y4R expressed in CHO cells co-expressing Gqi5-mtAEQ assessed as Kon preincubated for 20 mins under DPBS condition; type: cell-based; settings: filed as agonist, tested as the 3H-labelled form
[21] = target: T3, Neuropeptide Y receptor type 4; assay: Binding affinity to human Y4R expressed in CHO cells co-expressing Gqi5-mtAEQ assessed as Koff preincubated for 2 hrs under DPBS condition; type: cell-based; settings: filed as agonist, tested as the 3H-labelled form
[22] = target: T3, Neuropeptide Y receptor type 4; assay: Binding affinity to human Y4R expressed in CHO cells co-expressing Gqi5-mtAEQ assessed as Kon preincubated for 2 hrs under DPBS condition; type: cell-based; settings: filed as agonist, tested as the 3H-labelled form
[23] = target: T3, Neuropeptide Y receptor type 4; assay: (§1) Displacement of [3H]-(9S,12S,15S,19R,E)-4-amino-N-((S)-1-(((S)-1-(((S)-1-amino-3-(4-hydroxyphenyl)-1-oxopropan-2-yl)amino)-5-guanidino-1-oxopentan-2-yl)amino)-4-methyl-1-oxopentan-2-yl)-15-(3-guanidinopropyl)-12-(4-hydroxybenzyl)-2,11,14,17,20-pentaoxo-19-(4-(propanamido-2,3-t2)butanamido)-1,3,5,10,13,16,21-heptaazacyclopentacos-3-ene-9-carboxamide from human Y4R expressed in CHO cells coexpressing Gqi5-mtAEQ under hypotonic sodium free buffer condition; type: cell-based
[24] = target: T3, Neuropeptide Y receptor type 4; assay: as §1, with “isotonic” for “hypotonic”, “containing” for “free”; type: cell-based
[25] = target: T3, Neuropeptide Y receptor type 4; assay: Binding affinity to human Y4R under sodium free condition
[26] = target: T3, Neuropeptide Y receptor type 4; assay: Binding affinity to human Y4R under 140 mM sodium condition
[27] = target: T3, Neuropeptide Y receptor type 4; assay: Binding affinity to human Y4R under hypotonic sodium free condition

- Stability [1]: Stable
- Ki ([2]; read-out: pKi (converted)): > 1000 nM
- Ki ([2]; sk-n-mc, read-out: Ki): > 1000 nM
- Ki ([3]; read-out: Ki): > 3 µM
- Ki ([3]; read-out: pKi (converted)): > 3.16 µM
- Ki ([4]; read-out: Ki): 0.036 nM
- Ki ([4]; read-out: pKi (converted)): 0.0316 nM
- Ki ([5]; hec-1b cell line, read-out: Ki): > 1000 nM
- Ki ([5]; read-out: pKi (converted)): > 1000 nM
- Ratio pKi (Homo sapiens [6]): > 27000
- Ratio pKi (Homo sapiens [6]; tested as the 3H-labelled form): > 27000
- Ratio pKi (Homo sapiens [7]): > 27000
- Ratio pKi (Homo sapiens [7]; tested as the 3H-labelled form): > 27000
- Ratio pKi (Homo sapiens [8]): > 27000
- Ratio pKi (Homo sapiens [8]; tested as the 3H-labelled form): > 27000
- EC50 ([9]; read-out: EC50): 5.4 nM
- EC50 ([9]; read-out: pEC50 (converted)): 5.13 nM
- EC50 [10]: 5.1 nM
- EC50 ([11]; read-out: EC50): 0.17 nM
- EC50 ([11]; read-out: pEC50 (converted)): 0.126 nM
- Emax [12]: 65%
- Emax [13]: 60%
- Emax [14]: 83%
- K [15]: 0.071 min⁻¹
- K [16]: 0.009 min⁻¹
- K [17]: 4.1 nM⁻¹ min⁻¹
- K [18]: 0.54 min⁻¹
- K [19]: 0.12 min⁻¹
- K [20]: 8.4 nM⁻¹ min⁻¹
- K [21]: 0.059 min⁻¹
- K [22]: 0.7 nM⁻¹ min⁻¹
- Ki ([23]; read-out: Ki): 0.01 nM
- Ki ([23]; read-out: pKi (converted)): 0.00891 nM
- Ki ([24]; read-out: Ki): 0.088 nM
- Ki ([24]; read-out: pKi (converted)): 0.0832 nM
Compound: CCC(=O)NCCCC(=O)N[C@@H]1CC(=O)N[C@@H](CCCNC(=N)N)C(=O)N[C@@H](Cc2ccc(O)cc2)C(=O)N[C@H](C(=O)N[C@@H](CC(C)C)C(=O)N[C@@H](CCCNC(=N)N)C(=O)N[C@@H](Cc2ccc(O)cc2)C(N)=O)CCCN/C(N)=N/C(=O)NCCCCNC1=O.O=C(O)C(F)(F)F.O=C(O)C(F)(F)F.O=C(O)C(F)(F)F

- Kd [25]: 0.67 nM
- Kd [26]: 9.8 nM
- Ki ([23]; read-out: Ki): 0.39 nM
- Ki ([24]; read-out: Ki): 11 nM
- Ki ([24]; read-out: pKi (converted)): 10.2 nM
- Ki [27]: 0.87 nM
Compound: [3H]CC([3H])C(=O)N[C@H](CCCC[C@@H](N)C(=O)N[C@@H](Cc1ccc(O)cc1)C(=O)N[C@@H](CCCNC(=N)N)C(=O)N[C@@H](CC(C)C)C(=O)N[C@@H](CCCNC(=N)N)C(=O)N[C@@H](Cc1ccc(O)cc1)C(N)=O)C(=O)N[C@@H](Cc1ccc(O)cc1)C(=O)N[C@@H](CCCNC(=N)N)C(=O)N[C@@H](CC(C)C)C(=O)N[C@@H](CCCNC(=N)N)C(=O)N[C@@H](Cc1ccc(O)cc1)C(N)=O (stereo not given in full)

- Kd [25]: 0.67 nM
- Ki ([23]; read-out: Ki): 0.41 nM
- Ki ([23]; read-out: pKi (converted)): 0.209 nM
- Ki ([24]; read-out: Ki): 6.7 nM
Compound: [3H]CC([3H])C(=O)NCCCCNC(=O)/N=C(\N)NCCCC[C@H](NC(=O)[C@H](Cc1ccc(O)cc1)NC(=O)CCCCCCC(=O)N[C@@H](Cc1ccc(O)cc1)C(=O)N[C@@H](CCCNC(=N)N)C(=O)N[C@@H](CC(C)C)C(=O)N[C@@H](CCCNC(=N)N)C(=O)N[C@@H](Cc1ccc(O)cc1)C(N)=O)C(=O)N[C@@H](CC(C)C)C(=O)N[C@@H](CCCNC(=N)N)C(=O)N[C@@H](Cc1ccc(O)cc1)C(N)=O (stereo not given in full)
